Results as given in patent publication US10064862B2, “Antiviral axin stabilizer” (priority 2014, dated 2018).
Entries after “also recorded” stand apart in the source; their conditions may differ.

Legend:
Axin1 [1] = test: Axin1 stabilization in A549 cells (immunostaining, Western blot); format: cell-based, human
[2] = test system: IFN and IFN-stimulated gene (ISG) expression; test: IFNα1 and MX1 mRNA by Real-time PCR in primary mouse alveolar epithelial cells; format: cell-based
A549 cells = conditions: all the concentrations tested (30-80,000 nM), MTT assay
[3] = test system: H1N1 influenza A/PR/8/34 virus; format: cell-based
herpes simplex virus = conditions: previously reported; cited from earlier work
Axin1 [4] = format: in vivo, mouse; conditions: oral administration of RN-1 for 24 hours, 50 mg/kg
[5] = test system: nonO/p54(nrb), SFPQ, and hnRNP M; format: cell-based, human; conditions: A549 cells, 20 μM RN-1 24 hours pretreatment, MOI=2
[6] = test system: H1N1 influenza A/PR/8/34 virus; test: Lethal influenza virus challenge in mice (lung virus titer, survival); format: in vivo, mouse; conditions: for survival rate after lethal virus challenge: mice, 1,000 pfu, RN-1 50 mg/kg orally daily, -1 to 2 or 4 dpi
Experimental: Mice were challenged intranasally with a lethal dose (1,000 pfu) of H1N1 influenza A/PR/8/34 virus. […] Control animals received vehicle alone. […] (C) Virus titer in the homogenized infected lungs at 2 dpi was measured by TCID50 assay in MDCK cells and normalized to total protein amount. […] Data shown are means±s.e.m. and tested for statistical significance by Student's t-test. (D) Survival rate. […] Mantel-Cox χ2 test on Kaplan-Meier survival data was used to compare the survival rate between groups.
Male C57BL/6N mice (6-8 week old) were challenged intranasally with a lethal dose (1,000 pfu) of influenza virus A/PR/8/34 H1N1 under anesthesia. […] Control animals were given vehicle alone in the same formulation. All animals were observed daily for body weight loss and clinical signs of disease such as ruffled fur, inactivity and difficulty in breathing until 21 days post infection.
MDCK cells in 96-well plates were infected with serial dilutions (10^−1 to 10^−7) of virus samples in serum-free complete EMEM containing 1 μg/ml TPCK-treated trypsin for 1 hour. The cells were re-fed with the same medium for 4 days. TCID50 values (median tissue culture infective dose) were calculated by the method of Reed and Muench.
The results were analyzed by one-way ANOVA followed with posthoc Tukey's test for multiple comparisons of control and treatment groups, or Student's t-test using GraphPad Prism (version 6). Survival rates between groups were analyzed by Mantel-Cox χ2 test on Kaplan-Meier probability estimates using GraphPad Prism. All results were reported as mean±s.e.m.

[7] = test system: H1N1 influenza A/PR/8/34 virus; test: organism not typed; format: cell-based
[8] = test system: Axin1-stimulated IFN response; test: Axin1-stimulated IFN and ISG mRNA in OE-Axin1 HEK293 cells pretreated with inhibitors; format: cell-based, human; conditions: OE-Axin1, MOI=2
[9] = test system: H1N1 influenza A/PR/8/34 virus; test: Viral gene mRNA in OE-Axin1 HEK293 cells pretreated with inhibitors; format: cell-based
ISRE activity = test: ISRE_Luc dual-luciferase assay in OE-Axin1 HEK293 cells pretreated with inhibitors; format: cell-based, human; conditions: 10 μM inhibitor, OE-Axin1, MOI=2 for 8 hours
[10] = test system: H1N1 influenza A/PR/8/34 virus; format: cell-based; conditions: E10 cells, 250 ng/ml rhWnt3a or 50% Wnt3a_CM 24 hours pretreatment, MOI=2 for 18 hours
[11] = test system: influenza virus A/Puerto Rico/8/1934 H1N1; format: in vivo, mouse; conditions: mice, 250 pfu, 50 μl 10× Wnt3a_CM intranasally 4 hours before and 2 days post infection, lungs day 5
[12] = primary mouse alveolar epithelial cells during virus infection, 20 μM RN-1, 12 hpi
[13] = 10 μM inhibitor 6 hours pretreatment

For `Oc1nc(-c2ccc(C(F)(F)F)cc2)nc2c1CSCC2` [RN-1, 3,5,7,8-Tetrahydro-2-[4-(trifluoromethyl)phenyl]-4H-thiopyrano[4,3-d]pyrimidin-4-one], the “Axin1 protein during influenza virus infection” value (Axin1 [1]) was “Axin1 was not degraded”, the “mRNA expression of IFNα1” value [2, 12] was “increased the mRNA expression” and the “mRNA expression of the ISG MX1” value [2, 12] was “increased the mRNA expression”. The “baseline IFN gene expression” value ([2]; uninfected cells) was “had no effects”, the cell viability (A549 cells) was “did not affect cell viability” and the “virus replication (virus titer)” value [3] was “notably inhibited; also recorded: significantly inhibited virus replication”. For the same molecule, the “herpes simplex virus replication” value (herpes simplex virus) was “inhibit herpes simplex virus replication”, the “Axin1 protein in the mouse lung” value (Axin1 [4]) was “successfully stabilized Axin1” and the “degradation of nonO/p54(nrb), SFPQ and hnRNP M” value [5] was “stimulated the degradation of all three proteins”. For the same molecule, the “survival rate after lethal virus challenge” value [6] was “dramatically improved”, the “survival rate after lethal virus challenge” value ([6]; listed as XAV939) was “protected animals from lethal influenza virus challenge” and the “influenza virus replication in vivo (virus titer in infected lungs at 2 dpi)” value ([6]; mouse, in vivo, po) was “significantly attenuated”. For the same molecule, the “maximum inhibition of influenza virus replication” value [7] was “over 99%”, the “virus replication (virus titer in supernatants)” value [7] was “significantly attenuated” and the EC50 ([7]; A549, 24 h, read-out: EC50 of attenuation of influenza virus replication (virus titers in culture media)) was 419 nM.

In the case of `COc1cc2c(cc1OC)CN(C(=O)/C=C/c1c(-c3ccccc3)n(C)c3ncccc13)CC2` [SIS3], the “Axin1-stimulated IFN mRNA expression (IFNβ1, IFNα1, IFNα7, IFNλ1)” value [8, 13] is reported as “the same inhibitory effect on Axin1-elevated anti-viral machinery except IFNβ1 synthesis (FIG. 7A) and MX1 expression (FIG. 7E); also recorded: only inhibited Axin1-induced expression of IFNα but not IFNβ1”, the “Axin1-stimulated ISGs expression (OAS1, MX1, IP10)” value [8, 13] is reported as “the same inhibitory effect on Axin1-elevated anti-viral machinery except IFNβ1 synthesis (FIG. 7A) and MX1 expression (FIG. 7E)” and the “Axin1-regulated Type I and Type III IFN synthesis” value ([8]; 10 μM inhibitor) is reported as “the same inhibitory effect in both scenarios”. For the same molecule, the “effect on Axin1-mediated attenuation of influenza virus replication (viral gene mRNA)” value [9] was “relived Axin1-mediated attenuation of influenza virus replication” and the “Axin1-stimulated ISRE activity” value (ISRE activity) was “the same inhibitory effect”.

B1: Wnt3a: activator of Wnt/β-catenin signaling, given as rhWnt3a or Wnt3a_CM (protein, UniProt P56704 19-352, looked up)
Protein Wnt-3a: SYPIWWSLAVGPQYSSLGSQPILCASIPGLVPKQLRFCRNYVEIMPSVAEGIKIGIQECQHQFRGRRWNCTTVHDSLAIFGPVLDKATRESAFVHAIASAGVAFAVTRSCAEGTAAICGCSSRHQGSPGKGWKWGGCSEDIEFGGMVSREFADARENRPDARSAMNRHNNEAGRQAIASHMHLKCKCHGLSGSCEVKTCWWSQPDFRAIGDFLKDKYDSASEMVVEKHRESRGWVETLRPRYTYFKVPTERDLVYYEASPNFCEPNPETGSFGTRDRTCNVSSHGIDGCDLLCCGRGHNARAERRREKCRCVFHWCCYVSCQECTRVYDVHTCK
For B1, the “virus replication in vitro (viral gene mRNA)” value [10] was “dramatically promotes virus replication” and the “virus replication in vivo (viral gene mRNA in lungs)” value [11] was “dramatically promotes virus replication”.
